# Measurements reported in the supplement of paper PMC10307832.
# Experiments:
# Assay in all cases: relative viability (nuclei count vs DMSO), 5 days (fraction); higher = more cells survive
# [1] = system: A-427
# Summary of the method: (§1)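 Each reported value is a median over duplicate plates. It expresses relative viability: treated-well nuclei count divided by vehicle-well nuclei count. Lung cancer cell lines in 1536-well plates were dosed by pin tool a day after seeding, alone with one drug or with a fixed anchor-drug dose plus five library-drug doses (not always all listed) in √10 steps, and nuclei were counted after 5 days.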
# [2] = system: ABC-1
# Summary of the method: as §1
# [3] = system: EPLC-272H
# Summary of the method: as §1
# [4] = system: HCC-15
# Summary of the method: as §1
# [5] = system: LC-2-ad
# Summary of the method: as §1
# [6] = system: LK-2
# Summary of the method: as §1
# [7] = system: NCI-H1734
# Summary of the method: as §1
# [8] = system: NCI-H1793
# Summary of the method: as §1
# [9] = system: NCI-H1915
# Summary of the method: as §1
# [10] = system: NCI-H1944
# Summary of the method: as §1
# [11] = system: NCI-H2009
# Summary of the method: as §1
# [12] = system: NCI-H2023
# Summary of the method: as §1
# [13] = system: NCI-H2347
# Summary of the method: as §1
# [14] = system: NCI-H322M
# Summary of the method: as §1
# [15] = system: NCI-H358
# Summary of the method: as §1
# [16] = system: NCI-H647
# Summary of the method: as §1
# [17] = system: NCI-H838
# Summary of the method: as §1
# [18] = system: RERF-LC-KJ
# Summary of the method: as §1
# [19] = system: SW 1573
# Summary of the method: as §1
# [20] = system: UMC-11
# Summary of the method: as §1
structure (smiles),measurement,setting,value
Nc1cccc2c1CN(C1CCC(=O)NC1=O)C2=O (stereo not drawn) [Lenalidomide] + CS(=O)(=O)CCNCc1ccc(-c2ccc3ncnc(Nc4ccc(OCc5cccc(F)c5)c(Cl)c4)c3c2)o1 [Lapatinib] (partner 2 µM),relative viability,[1]; first compound 0.253 µM,0.983
same,relative viability,[1]; first compound 2.53 µM,1.1
same,relative viability,[1]; first compound 8 µM,0.975
same,relative viability,[2]; first compound 0.253 µM,1.13
same,relative viability,[2]; first compound 2.53 µM,1.11
same,relative viability,[2]; first compound 8 µM,1.34
same,relative viability,[3]; first compound 0.253 µM,0.97
same,relative viability,[3]; first compound 2.53 µM,0.976
same,relative viability,[3]; first compound 8 µM,0.648
same,relative viability,[4]; first compound 0.253 µM,0.902
same,relative viability,[4]; first compound 2.53 µM,1.07
same,relative viability,[4]; first compound 8 µM,0.841
same,relative viability,[5]; first compound 0.253 µM,0.941
same,relative viability,[5]; first compound 0.8 µM,0.96
same,relative viability,[5]; first compound 2.53 µM,1.05
same,relative viability,[5]; first compound 8 µM,1
same,relative viability,[6]; first compound 0.253 µM,0.884
same,relative viability,[6]; first compound 2.53 µM,0.864
same,relative viability,[6]; first compound 8 µM,0.709
same,relative viability,[7]; first compound 0.253 µM,1.09
same,relative viability,[7]; first compound 0.8 µM,1.1
same,relative viability,[7]; first compound 2.53 µM,1.18
same,relative viability,[7]; first compound 8 µM,0.969
same,relative viability,[8]; first compound 0.253 µM,0.675
same,relative viability,[8]; first compound 0.8 µM,0.483
same,relative viability,[8]; first compound 2.53 µM,1.07
same,relative viability,[8]; first compound 8 µM,0.454
same,relative viability,[9]; first compound 0.253 µM,0.979
same,relative viability,[9]; first compound 0.8 µM,0.807
same,relative viability,[9]; first compound 2.53 µM,1.11
same,relative viability,[9]; first compound 8 µM,1.02
same,relative viability,[10]; first compound 0.253 µM,0.932
same,relative viability,[10]; first compound 0.8 µM,0.59
same,relative viability,[10]; first compound 2.53 µM,0.754
same,relative viability,[10]; first compound 8 µM,0.602
same,relative viability,[11]; first compound 0.253 µM,0.919
same,relative viability,[11]; first compound 0.8 µM,0.947
same,relative viability,[11]; first compound 2.53 µM,1.25
same,relative viability,[11]; first compound 8 µM,1.25
same,relative viability,[12]; first compound 0.253 µM,0.74
same,relative viability,[12]; first compound 0.8 µM,0.859
same,relative viability,[12]; first compound 2.53 µM,0.838
same,relative viability,[12]; first compound 8 µM,0.568
same,relative viability,[13]; first compound 0.253 µM,0.928
same,relative viability,[13]; first compound 0.8 µM,0.797
same,relative viability,[13]; first compound 2.53 µM,0.894
same,relative viability,[13]; first compound 8 µM,0.802
same,relative viability,[14]; first compound 0.253 µM,0.648
same,relative viability,[14]; first compound 0.8 µM,0.629
same,relative viability,[14]; first compound 2.53 µM,0.592
same,relative viability,[14]; first compound 8 µM,0.635
same,relative viability,[15]; first compound 0.253 µM,0.41
same,relative viability,[15]; first compound 0.8 µM,0.623
same,relative viability,[15]; first compound 2.53 µM,0.51
same,relative viability,[15]; first compound 8 µM,0.453
same,relative viability,[16]; first compound 0.253 µM,0.995
same,relative viability,[16]; first compound 0.8 µM,0.981
same,relative viability,[16]; first compound 2.53 µM,1.46
same,relative viability,[16]; first compound 8 µM,0.88
same,relative viability,[17]; first compound 0.253 µM,0.807
same,relative viability,[17]; first compound 0.8 µM,0.956
same,relative viability,[17]; first compound 2.53 µM,1.34
same,relative viability,[17]; first compound 8 µM,0.816
same,relative viability,[18]; first compound 0.253 µM,0.86
same,relative viability,[18]; first compound 0.8 µM,0.778
same,relative viability,[18]; first compound 2.53 µM,0.904
same,relative viability,[18]; first compound 8 µM,0.757
same,relative viability,[19]; first compound 0.253 µM,1.12
same,relative viability,[19]; first compound 0.8 µM,1.08
same,relative viability,[19]; first compound 2.53 µM,1.12
same,relative viability,[19]; first compound 8 µM,0.992
same,relative viability,[20]; first compound 0.253 µM,1.1
same,relative viability,[20]; first compound 0.8 µM,0.803
same,relative viability,[20]; first compound 2.53 µM,1.04
same,relative viability,[20]; first compound 8 µM,0.791
CCNC(=O)c1noc(-c2cc(C(C)C)c(O)cc2O)c1-c1ccc(CN2CCOCC2)cc1 [Luminespib] + CS(=O)(=O)CCNCc1ccc(-c2ccc3ncnc(Nc4ccc(OCc5cccc(F)c5)c(Cl)c4)c3c2)o1 [Lapatinib] (partner 2 µM),relative viability,[1]; first compound 0.002 µM,1.08
same,relative viability,[1]; first compound 0.006325 µM,1.02
same,relative viability,[1]; first compound 0.02 µM,0.771
same,relative viability,[1]; first compound 0.06325 µM,1.04
same,relative viability,[1]; first compound 0.2 µM,0.975
same,relative viability,[2]; first compound 0.002 µM,1.33
same,relative viability,[2]; first compound 0.006325 µM,0.964
same,relative viability,[2]; first compound 0.02 µM,0.945
same,relative viability,[2]; first compound 0.06325 µM,1.14
same,relative viability,[2]; first compound 0.2 µM,0.517
same,relative viability,[3]; first compound 0.006325 µM,0.861
same,relative viability,[3]; first compound 0.02 µM,0.563
same,relative viability,[3]; first compound 0.06325 µM,0.725
same,relative viability,[3]; first compound 0.2 µM,0.153
same,relative viability,[4]; first compound 0.002 µM,0.812
same,relative viability,[4]; first compound 0.006325 µM,0.783
same,relative viability,[4]; first compound 0.02 µM,0.883
same,relative viability,[4]; first compound 0.06325 µM,0.308
same,relative viability,[4]; first compound 0.2 µM,0.136
same,relative viability,[5]; first compound 0.002 µM,0.928
same,relative viability,[5]; first compound 0.006325 µM,0.954
same,relative viability,[5]; first compound 0.02 µM,0.659
same,relative viability,[5]; first compound 0.06325 µM,0.498
same,relative viability,[5]; first compound 0.2 µM,0.0905
same,relative viability,[6]; first compound 0.002 µM,0.849
same,relative viability,[6]; first compound 0.006325 µM,0.941
same,relative viability,[6]; first compound 0.02 µM,0.545
same,relative viability,[6]; first compound 0.06325 µM,0.252
same,relative viability,[6]; first compound 0.2 µM,0.204
same,relative viability,[7]; first compound 0.002 µM,1.08
same,relative viability,[7]; first compound 0.006325 µM,1
same,relative viability,[7]; first compound 0.02 µM,0.675
same,relative viability,[7]; first compound 0.06325 µM,0.123
same,relative viability,[7]; first compound 0.2 µM,0.132
same,relative viability,[8]; first compound 0.002 µM,0.697
same,relative viability,[8]; first compound 0.006325 µM,0.832
same,relative viability,[8]; first compound 0.02 µM,0.223
same,relative viability,[8]; first compound 0.06325 µM,0.167
same,relative viability,[8]; first compound 0.2 µM,0.177
same,relative viability,[9]; first compound 0.002 µM,0.943
same,relative viability,[9]; first compound 0.006325 µM,0.957
same,relative viability,[9]; first compound 0.02 µM,0.932
same,relative viability,[9]; first compound 0.06325 µM,0.99
same,relative viability,[9]; first compound 0.2 µM,0.284
same,relative viability,[10]; first compound 0.002 µM,0.869
same,relative viability,[10]; first compound 0.006325 µM,0.724
same,relative viability,[10]; first compound 0.02 µM,0.445
same,relative viability,[10]; first compound 0.06325 µM,0.41
same,relative viability,[10]; first compound 0.2 µM,0.407
same,relative viability,[11]; first compound 0.002 µM,1.22
same,relative viability,[11]; first compound 0.006325 µM,0.814
same,relative viability,[11]; first compound 0.02 µM,0.63
same,relative viability,[11]; first compound 0.06325 µM,0.0682
same,relative viability,[11]; first compound 0.2 µM,0.0655
same,relative viability,[12]; first compound 0.002 µM,0.866
same,relative viability,[12]; first compound 0.006325 µM,0.787
same,relative viability,[12]; first compound 0.02 µM,0.124
same,relative viability,[12]; first compound 0.06325 µM,0.0702
same,relative viability,[12]; first compound 0.2 µM,0.0724
same,relative viability,[13]; first compound 0.002 µM,0.941
same,relative viability,[13]; first compound 0.02 µM,0.876
same,relative viability,[13]; first compound 0.06325 µM,0.758
same,relative viability,[13]; first compound 0.2 µM,0.88
same,relative viability,[14]; first compound 0.002 µM,0.556
same,relative viability,[14]; first compound 0.006325 µM,0.573
same,relative viability,[14]; first compound 0.02 µM,0.503
same,relative viability,[14]; first compound 0.06325 µM,0.708
same,relative viability,[14]; first compound 0.2 µM,0.373
same,relative viability,[15]; first compound 0.002 µM,0.503
same,relative viability,[15]; first compound 0.006325 µM,0.446
same,relative viability,[15]; first compound 0.02 µM,0.354
same,relative viability,[15]; first compound 0.06325 µM,0.132
same,relative viability,[15]; first compound 0.2 µM,0.14
same,relative viability,[16]; first compound 0.002 µM,1.2
same,relative viability,[16]; first compound 0.006325 µM,1.16
same,relative viability,[16]; first compound 0.02 µM,0.359
same,relative viability,[16]; first compound 0.06325 µM,0.0578
same,relative viability,[16]; first compound 0.2 µM,0.0724
same,relative viability,[17]; first compound 0.002 µM,1.05
same,relative viability,[17]; first compound 0.006325 µM,0.911
same,relative viability,[17]; first compound 0.02 µM,0.328
same,relative viability,[17]; first compound 0.06325 µM,0.103
same,relative viability,[17]; first compound 0.2 µM,0.0976
same,relative viability,[18]; first compound 0.002 µM,0.825
same,relative viability,[18]; first compound 0.006325 µM,0.812
same,relative viability,[18]; first compound 0.02 µM,0.621
same,relative viability,[18]; first compound 0.06325 µM,0.726
same,relative viability,[18]; first compound 0.2 µM,0.294
same,relative viability,[19]; first compound 0.002 µM,1.2
same,relative viability,[19]; first compound 0.006325 µM,1.14
same,relative viability,[19]; first compound 0.02 µM,0.711
same,relative viability,[19]; first compound 0.06325 µM,0.439
same,relative viability,[19]; first compound 0.2 µM,0.127
same,relative viability,[20]; first compound 0.002 µM,0.85
same,relative viability,[20]; first compound 0.006325 µM,0.834
same,relative viability,[20]; first compound 0.02 µM,0.395
same,relative viability,[20]; first compound 0.06325 µM,0.345
same,relative viability,[20]; first compound 0.2 µM,0.125
